Test results: ChEMBL document CHEMBL1201862, “PubChem BioAssay data set” (2004)
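Cells were grown in 96-well plates and exposed to each compound for 48 hours at five concentrations; endpoints were interpolated linearly between bracketing concentrations, or set to the highest concentration if not reached. Abbreviation: GI50, concentration required for 50% inhibition of growth.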 Activity calls are given as the source filed them. No stated cut-off is given here; in the data, active = GI50 up to about 1.1 µM and inactive = higher.

How the values were obtained:
Assay in all cases: NCI tumour cell line growth inhibition, 48 h
SK-MEL-28 = tested on: SK-MEL-28
UACC-62 = tested on: UACC-62
UO-31 = tested on: UO-31
NCI-H522 = tested on: NCI-H522
SNB-19 = tested on: SNB-19
OVCAR-5 = tested on: OVCAR-5
CAKI-1 = tested on: CAKI-1
HCT-116 = tested on: HCT-116
NCI-H23 = tested on: NCI-H23
K562 = tested on: K562
KM12 = tested on: KM12
SR = tested on: SR
U-251 = tested on: U-251
786-0 = tested on: 786-0
ACHN = tested on: ACHN
RXF 393 = tested on: RXF 393
LOX IMVI = tested on: LOX IMVI

Measured: GI50

COC(=O)/C(=N\NC(=S)NN)C(C(=O)C(=O)Nc1ccccc1C(N)=O)c1nc2ccccc2nc1O (configuration not stated)
inactive: SK-MEL-28 > 100 µM | UACC-62 > 100 µM | UO-31 > 100 µM | NCI-H522 > 100 µM | SNB-19 > 100 µM | OVCAR-5 > 100 µM | CAKI-1 > 100 µM | HCT-116 > 100 µM | NCI-H23 7.69 µM | K562 > 100 µM | KM12 > 100 µM | SR > 100 µM | U-251 > 100 µM | 786-0 > 100 µM | ACHN > 100 µM | RXF 393 > 100 µM

Cc1[nH]c2ccccc2c1C1=NO/C(=N\O)C(c2c(C)[nH]c3ccccc23)C1 (configuration not stated)
inactive: SK-MEL-28 52.5 µM | UACC-62 19.9 µM | UO-31 26.9 µM | SNB-19 72.8 µM | OVCAR-5 50 µM | CAKI-1 36.1 µM | HCT-116 28.3 µM | NCI-H23 62.1 µM | K562 33.2 µM | KM12 38 µM | SR 23.8 µM | U-251 42.9 µM | 786-0 40.7 µM | ACHN 28.6 µM | RXF 393 23.3 µM

C=C[C@@]12CCCCC1C/C(=C(/O)OC)C(=O)C2 (some centres not stated)
inactive: SK-MEL-28 > 100 µM | UACC-62 > 100 µM | UO-31 > 100 µM | NCI-H522 > 100 µM | SNB-19 > 100 µM | OVCAR-5 > 100 µM | LOX IMVI > 100 µM | CAKI-1 > 100 µM | HCT-116 > 100 µM | NCI-H23 > 100 µM | K562 > 100 µM | KM12 > 100 µM | SR > 100 µM | U-251 > 100 µM | 786-0 > 100 µM | ACHN > 100 µM | RXF 393 > 100 µM

O=C(O)C1(c2ccccc2)CCCNCC1 (configuration not stated)
inactive: SK-MEL-28 > 100 µM | UACC-62 > 100 µM | UO-31 > 100 µM | NCI-H522 > 100 µM | SNB-19 > 100 µM | OVCAR-5 > 100 µM | LOX IMVI > 100 µM | CAKI-1 > 100 µM | HCT-116 > 100 µM | NCI-H23 > 100 µM | K562 > 100 µM | KM12 > 100 µM | SR > 100 µM | U-251 > 100 µM | 786-0 > 100 µM | ACHN > 100 µM | RXF 393 > 100 µM

COc1cc(C2(C)SCCCS2)c(I)c(OC)c1OC
inactive: SK-MEL-28 > 100 µM | UACC-62 > 100 µM | UO-31 > 100 µM | NCI-H522 > 100 µM | SNB-19 > 100 µM | OVCAR-5 > 100 µM | LOX IMVI > 100 µM | CAKI-1 > 100 µM | HCT-116 > 100 µM | NCI-H23 > 100 µM | K562 87.5 µM | KM12 > 100 µM | SR > 100 µM | U-251 > 100 µM | 786-0 > 100 µM | ACHN > 100 µM

OCn1nc2c(C3OCCO3)cc3ccccc3n2c1=S
inactive: SK-MEL-28 > 100 µM | UACC-62 > 100 µM | UO-31 > 100 µM | NCI-H522 > 100 µM | SNB-19 > 100 µM | OVCAR-5 > 100 µM | LOX IMVI > 100 µM | CAKI-1 > 100 µM | HCT-116 > 100 µM | NCI-H23 > 100 µM | K562 > 100 µM | KM12 > 100 µM | SR > 100 µM | U-251 > 100 µM | 786-0 > 100 µM | ACHN > 100 µM | RXF 393 > 100 µM

O=C(Cc1nc2ccccc2s1)C(=O)Nc1ccc(Cl)cc1Cl
inactive: SK-MEL-28 > 100 µM | UO-31 > 100 µM | SNB-19 > 100 µM | OVCAR-5 > 100 µM | LOX IMVI > 100 µM | HCT-116 > 100 µM | NCI-H23 54 µM | K562 > 100 µM | KM12 > 100 µM | SR > 100 µM | U-251 > 100 µM | 786-0 > 100 µM | ACHN > 100 µM

O=C1CCN2C(=Nc3cccc4cccc2c34)N1
inactive: SK-MEL-28 > 100 µM | UACC-62 > 100 µM | UO-31 73.8 µM | SNB-19 > 100 µM | OVCAR-5 > 100 µM | LOX IMVI > 100 µM | HCT-116 > 100 µM | NCI-H23 > 100 µM | K562 > 100 µM | SR > 100 µM | U-251 > 100 µM | 786-0 26.1 µM | ACHN > 100 µM | RXF 393 > 100 µM

COc1ccc(N2C(=O)/C(=C/c3ccc(N(CCC#N)CCC#N)cc3C)N=C2/C=C\c2ccccc2)cc1
inactive: SK-MEL-28 31.4 µM | UACC-62 5.24 µM | UO-31 14 µM | NCI-H522 17 µM | SNB-19 > 100 µM | OVCAR-5 > 100 µM | LOX IMVI 28.8 µM | CAKI-1 29.2 µM | HCT-116 76.6 µM | NCI-H23 49.5 µM | K562 40.1 µM | KM12 28.1 µM | SR 44 µM | U-251 46.8 µM | 786-0 44.4 µM | ACHN 18.6 µM

CP(C)C.[Ag][I]
inactive: SK-MEL-28 61.9 µM | UACC-62 > 100 µM | UO-31 > 100 µM | SNB-19 > 100 µM | OVCAR-5 > 100 µM | LOX IMVI 25.5 µM | CAKI-1 > 100 µM | HCT-116 58.3 µM | NCI-H23 85.3 µM | K562 > 100 µM | KM12 > 100 µM | SR > 100 µM | U-251 > 100 µM | 786-0 > 100 µM | ACHN > 100 µM | RXF 393 > 100 µM

COC(=O)C1=C(C(=O)OC)C2(C)OC1C(=O)C21CC1 (configuration not stated)
inactive: UO-31 79.6 µM | NCI-H522 11.2 µM | SNB-19 > 100 µM | OVCAR-5 > 100 µM | LOX IMVI 18.8 µM | CAKI-1 18.6 µM | HCT-116 19.8 µM | NCI-H23 22 µM | K562 19.8 µM | KM12 30.5 µM | SR 19 µM | U-251 > 100 µM | 786-0 38.7 µM | ACHN 19.3 µM | RXF 393 16.8 µM

CC(C)(C)C(=O)OC12/C(=N/O)CCCCCC1c1ccccc12 (configuration not stated)
inactive: SK-MEL-28 18.5 µM | UACC-62 17.4 µM | UO-31 17.1 µM | NCI-H522 17.8 µM | SNB-19 17.4 µM | OVCAR-5 15.3 µM | LOX IMVI 14.3 µM | CAKI-1 11.9 µM | HCT-116 14.4 µM | NCI-H23 16.6 µM | K562 19.5 µM | KM12 16.1 µM | U-251 17.7 µM | 786-0 17.2 µM | ACHN 17.9 µM | RXF 393 19.5 µM

O=C(O)c1nccnc1C(=O)O
inactive: SK-MEL-28 > 100 µM | UACC-62 > 100 µM | UO-31 > 100 µM | NCI-H522 > 100 µM | SNB-19 > 100 µM | OVCAR-5 > 100 µM | LOX IMVI > 100 µM | CAKI-1 > 100 µM | HCT-116 > 100 µM | NCI-H23 > 100 µM | K562 > 100 µM | KM12 > 100 µM | SR > 100 µM | U-251 > 100 µM | 786-0 > 100 µM | RXF 393 > 100 µM

COc1ccc2[nH]cc(CCNC(C)=O)c2c1 [MELATONIN]
inactive: SK-MEL-28 > 100 µM | UACC-62 > 100 µM | UO-31 > 100 µM | NCI-H522 > 100 µM | SNB-19 > 100 µM | OVCAR-5 > 100 µM | LOX IMVI 39.8 µM | CAKI-1 > 100 µM | HCT-116 > 100 µM | NCI-H23 > 100 µM | K562 39.1 µM | KM12 > 100 µM | U-251 > 100 µM | 786-0 88.5 µM | ACHN > 100 µM | RXF 393 > 100 µM

O=C1C2C3SC(c4cc5ccccc5cc43)C2C(=O)N1c1ccccc1 (configuration not stated)
inactive: SK-MEL-28 88.5 µM | UACC-62 95.1 µM | UO-31 > 100 µM | NCI-H522 75.7 µM | SNB-19 30.7 µM | OVCAR-5 > 100 µM | LOX IMVI > 100 µM | CAKI-1 45 µM | HCT-116 > 100 µM | NCI-H23 98.9 µM | K562 > 100 µM | KM12 > 100 µM | U-251 68.2 µM | 786-0 50.8 µM | ACHN 48.5 µM | RXF 393 28.1 µM

Cc1cc(NS(=O)(=O)c2ccc(NC(=O)c3ccc(Cl)c4c(Nc5ccc(S(=O)(=O)N=C(N)N)cc5)c5ccccc5nc34)cc2)no1
inactive: SK-MEL-28 87.5 µM | UACC-62 44.3 µM | UO-31 > 100 µM | NCI-H522 20 µM | SNB-19 39.7 µM | OVCAR-5 > 100 µM | LOX IMVI 28.1 µM | HCT-116 36 µM | NCI-H23 > 100 µM | K562 39 µM | KM12 40.6 µM | SR 27.6 µM | U-251 18 µM | 786-0 45.6 µM | ACHN > 100 µM | RXF 393 19.2 µM

CC(C)=CCC/C(C)=C/CC/C(C)=C/Cc1c(O)c2ccccc2oc1=O
inactive: SK-MEL-28 > 100 µM | UACC-62 63.7 µM | UO-31 48.8 µM | NCI-H522 > 100 µM | SNB-19 > 100 µM | LOX IMVI > 100 µM | HCT-116 89.1 µM | NCI-H23 55.8 µM | K562 80.5 µM | KM12 > 100 µM | SR > 100 µM | U-251 57.9 µM | 786-0 > 100 µM | ACHN > 100 µM | RXF 393 99.1 µM

CCCCNC1=C(C(=O)OCC)C(=O)CO1
inactive: SK-MEL-28 > 100 µM | UACC-62 > 100 µM | UO-31 > 100 µM | NCI-H522 > 100 µM | SNB-19 > 100 µM | OVCAR-5 > 100 µM | LOX IMVI > 100 µM | CAKI-1 > 100 µM | NCI-H23 > 100 µM | K562 > 100 µM | KM12 > 100 µM | U-251 > 100 µM | 786-0 > 100 µM | ACHN > 100 µM | RXF 393 > 100 µM
